# Reference: ChEMBL document CHEMBL4308841, “Synthesis, in vitro antiproliferative activity, and kinase inhibitory effects of pyrazole-containing diarylureas and diarylamides” (Eur J Med Chem, 2018)
# Legend:
# [1] = tested on: SN12C; experiment: Growth inhibition of human SN12C cells assessed as cell growth at 0.01 uM incubated for 48 hrs by sulforhodamine B assay relative to control; format: functional; conditions: read-out: Activity
# [2] = tested on: NCI-H226; experiment: Growth inhibition of human NCI-H226 cells assessed as cell growth at 100 uM incubated for 48 hrs by sulforhodamine B assay relative to control; format: functional; conditions: NCI-H226, 48 h, read-out: Activity
# [3] = tested on: T47D; experiment: Growth inhibition of human T47D cells assessed as cell growth at 0.1 uM incubated for 48 hrs by sulforhodamine B assay relative to control; format: functional; conditions: read-out: Activity
# [4] = tested on: SNB-19; experiment: Growth inhibition of human SNB19 cells assessed as cell growth at 0.1 uM incubated for 48 hrs by sulforhodamine B assay relative to control; format: functional; conditions: SNB-19, 48 h, read-out: Activity
# [5] = tested on: RPMI-8226; experiment: Growth inhibition of human RPMI8226 cells assessed as cell growth at 0.1 uM incubated for 48 hrs by sulforhodamine B assay relative to control; format: functional; conditions: RPMI-8226, 48 h, read-out: Activity
# [6] = tested on: U-251; experiment: Growth inhibition of human U251 cells assessed as cell growth at 100 uM incubated for 48 hrs by sulforhodamine B assay relative to control; format: functional; conditions: U-251, 48 h, read-out: Activity
# [7] = tested on: UACC-257; experiment: Growth inhibition of human UACC257 cells incubated for 48 hrs by sulforhodamine B assay; format: functional, cell-based; conditions: UACC-257, 48 h
# [8] = tested on: CCRF-CEM; experiment: Growth inhibition of human CCRF-CEM cells assessed as cell growth at 100 uM incubated for 48 hrs by sulforhodamine B assay relative to control; format: functional; conditions: read-out: Activity
# [9] = tested on: Hs-578T; experiment: Growth inhibition of human Hs578T cells assessed as cell growth at 1 uM incubated for 48 hrs by sulforhodamine B assay relative to control; format: functional; conditions: read-out: Activity
# [10] = tested on: RXF 393; experiment: Growth inhibition of human RXF393 cells assessed as cell growth at 0.1 uM incubated for 48 hrs by sulforhodamine B assay relative to control; format: functional; conditions: RXF 393, 48 h, read-out: Activity
# [11] = tested on: SK-OV-3; experiment: Growth inhibition of human SKOV3 cells assessed as cell growth at 0.1 uM incubated for 48 hrs by sulforhodamine B assay relative to control; format: functional; conditions: SK-OV-3, 48 h, read-out: Activity
# [12] = tested on: SF-268; experiment: Growth inhibition of human SF268 cells assessed as cell growth at 100 uM incubated for 48 hrs by sulforhodamine B assay relative to control; format: functional; conditions: SF-268, 48 h, read-out: Activity
# [13] = tested on: SNB-19; experiment: Growth inhibition of human SNB19 cells incubated for 48 hrs by sulforhodamine B assay; format: functional, cell-based; conditions: SNB-19, 48 h
# [14] = tested on: UO-31; experiment: Growth inhibition of human UO31 cells incubated for 48 hrs by sulforhodamine B assay; format: functional, cell-based; conditions: UO-31, 48 h
# [15] = tested on: ACHN; experiment: Growth inhibition of human ACHN cells assessed as cell growth at 100 uM incubated for 48 hrs by sulforhodamine B assay relative to control; format: functional; conditions: read-out: Activity
# [16] = tested on: NCI/ADR-RES; experiment: Growth inhibition of human NCI/ADR-RES cells assessed as cell growth at 0.1 uM incubated for 48 hrs by sulforhodamine B assay relative to control; format: functional; conditions: read-out: Activity
# [17] = tested on: UACC-62; experiment: Growth inhibition of human UACC62 cells assessed as cell growth at 0.01 uM incubated for 48 hrs by sulforhodamine B assay relative to control; format: functional; conditions: UACC-62, 48 h, read-out: Activity
# [18] = tested on: SNB-75; experiment: Growth inhibition of human SNB75 cells assessed as cell growth at 1 uM incubated for 48 hrs by sulforhodamine B assay relative to control; format: functional; conditions: SNB-75, 48 h, read-out: Activity
# [19] = tested on: NCI-H322M; experiment: Growth inhibition of human NCI-H322M cells assessed as cell growth at 0.1 uM incubated for 48 hrs by sulforhodamine B assay relative to control; format: functional; conditions: read-out: Activity
# [20] = tested on: NCI-H522; experiment: Growth inhibition of human NCI-H522 cells assessed as cell growth at 0.1 uM incubated for 48 hrs by sulforhodamine B assay relative to control; format: functional; conditions: NCI-H522, 48 h, read-out: Activity
# [21] = tested on: HCC 2998; experiment: Growth inhibition of human HCC2998 cells incubated for 48 hrs by sulforhodamine B assay; format: functional, cell-based; conditions: HCC 2998, 48 h
# [22] = tested on: HL-60(TB); experiment: Growth inhibition of human HL-60(TB) cells incubated for 48 hrs by sulforhodamine B assay; format: functional, cell-based; conditions: HL-60, 48 h
# [23] = tested on: A549; experiment: Growth inhibition of human A549/ATCC cells assessed as cell growth at 100 uM incubated for 48 hrs by sulforhodamine B assay relative to control; format: functional; conditions: A549, 48 h, read-out: Activity
# [24] = tested on: RXF 393; experiment: Growth inhibition of human RXF393 cells incubated for 48 hrs by sulforhodamine B assay; format: functional, cell-based; conditions: RXF 393, 48 h
# [25] = tested on: BT-549; experiment: Growth inhibition of human BT549 cells assessed as cell growth at 100 uM incubated for 48 hrs by sulforhodamine B assay relative to control; format: functional; conditions: BT-549, 48 h, read-out: Activity
# [26] = tested on: SF-539; experiment: Growth inhibition of human SF539 cells assessed as cell growth at 0.1 uM incubated for 48 hrs by sulforhodamine B assay relative to control; format: functional; conditions: SF-539, 48 h, read-out: Activity
# [27] = tested on: KM12; experiment: Growth inhibition of human KM12 cells assessed as cell growth at 0.1 uM incubated for 48 hrs by sulforhodamine B assay relative to control; format: functional; conditions: KM12, 48 h, read-out: Activity
# [28] = tested on: SK-MEL-2; experiment: Growth inhibition of human SK-MEL-2 cells assessed as cell growth at 0.1 uM incubated for 48 hrs by sulforhodamine B assay relative to control; format: functional; conditions: SK-MEL-2, 48 h, read-out: Activity
# [29] = tested on: HCT-116; experiment: Growth inhibition of human HCT116 cells assessed as cell growth at 0.1 uM incubated for 48 hrs by sulforhodamine B assay relative to control; format: functional; conditions: HCT-116, 48 h, read-out: Activity
# [30] = read-out: LC50 (the source's name)
# [31] = read-out: pLC50 (the source's name) (converted)
smiles,measurement,setting,value
O=C(Nc1cccc(-n2cc(-c3ccncc3)c(-c3cc(O)cc(Cl)c3)n2)c1)c1ccc(N2CCOCC2)c(C(F)(F)F)c1,growth at 0.01 µM,[1],94%
same,growth at 100 µM,[2],27%
same,growth at 0.1 µM,[3],98%
same,growth at 0.1 µM,[4],105%
same,growth at 0.1 µM,[5],100%
same,growth at 100 µM,[6],-69%
same,GI50,[7]; read-out: GI50,2360 nM
same,CC50,[7]; [30],> 100 µM
same,TGI,[7]; read-out: TGI,84 µM
same,GI50,[7]; read-out: pGI50 (converted),2340 nM
same,CC50,[7]; [31],> 100 µM
same,TGI,[7]; read-out: pTGI (converted),8.51 µM
same,growth at 100 µM,[8],2%
same,growth at 1 µM,[9],59%
same,growth at 0.1 µM,[10],85%
same,growth at 0.1 µM,[11],102%
same,growth at 100 µM,[12],38%
same,GI50,[13]; read-out: GI50,3.33 µM
same,CC50,[13]; [30],> 100 µM
same,TGI,[13]; read-out: TGI,33.8 µM
same,GI50,[13]; read-out: pGI50 (converted),3.31 µM
same,CC50,[13]; [31],> 100 µM
same,TGI,[13]; read-out: pTGI (converted),33.9 µM
same,IC50,[14],1410 nM
same,GI50,[14]; read-out: GI50,1410 nM
same,CC50,[14]; [30],> 100 µM
same,TGI,[14]; read-out: TGI,15.5 µM
same,GI50,[14]; read-out: pGI50 (converted),1120 nM
same,CC50,[14]; [31],> 100 µM
same,TGI,[14]; read-out: pTGI (converted),15.5 µM
same,growth at 100 µM,[15],-20%
same,growth at 0.1 µM,[16],103%
same,growth at 0.01 µM,[17],96%
same,growth at 1 µM,[18],45%
same,growth at 0.1 µM,[19],97%
same,growth at 0.1 µM,[20],90%
same,GI50,[21]; read-out: GI50,1520 nM
same,CC50,[21]; [30],> 100 µM
same,TGI,[21]; read-out: TGI,79.5 µM
same,GI50,[21]; read-out: pGI50 (converted),1820 nM
same,CC50,[21]; [31],> 100 µM
same,TGI,[21]; read-out: pTGI (converted),7.94 µM
same,GI50,[22]; read-out: GI50,810 nM
same,LC50,[22]; read-out: LC50,> 100 µM
same,TGI,[22]; read-out: TGI,30.4 µM
same,GI50,[22]; read-out: pGI50 (converted),813 nM
same,LC50,[22]; read-out: pLC50 (converted),> 100 µM
same,TGI,[22]; read-out: pTGI (converted),3.02 µM
same,growth at 100 µM,[23],-14%
same,LC50,[24],> 100 µM
same,GI50,[24]; read-out: GI50,303 nM
same,TGI,[24]; read-out: TGI,19 µM
same,GI50,[24]; read-out: pGI50 (converted),302 nM
same,TGI,[24]; read-out: pTGI (converted),1.91 µM
same,growth at 100 µM,[25],17%
same,growth at 0.1 µM,[26],93%
same,growth at 0.1 µM,[27],105%
same,growth at 0.1 µM,[28],101%
same,growth at 0.1 µM,[29],102%
O=C(Nc1cccc(-n2cc(-c3ccncc3)c(-c3cc(O)cc(Cl)c3)n2)c1)Nc1ccc(Cl)c(C(F)(F)F)c1,growth at 0.01 µM,[1],102%
same,growth at 100 µM,[2],-38%
same,growth at 0.1 µM,[3],90%
same,growth at 0.1 µM,[4],95%
same,growth at 0.1 µM,[5],101%
same,growth at 100 µM,[6],-84%
same,GI50,[7]; read-out: GI50,1990 nM
same,CC50,[7]; [30],19.2 µM
same,TGI,[7]; read-out: TGI,63.4 µM
same,GI50,[7]; read-out: pGI50 (converted),2000 nM
same,CC50,[7]; [31],19.1 µM
same,TGI,[7]; read-out: pTGI (converted),5.37 µM
same,growth at 100 µM,[8],-3%
same,growth at 1 µM,[9],87%
same,growth at 0.1 µM,[10],95%
same,growth at 0.1 µM,[11],104%
same,growth at 100 µM,[12],-27%
same,GI50,[13]; read-out: GI50,3.7 µM
same,CC50,[13]; [30],> 100 µM
same,TGI,[13]; read-out: TGI,15.9 µM
same,GI50,[13]; read-out: pGI50 (converted),3.72 µM
same,CC50,[13]; [31],> 100 µM
same,TGI,[13]; read-out: pTGI (converted),16.6 µM
same,IC50,[14],2100 nM
same,GI50,[14]; read-out: GI50,2100 nM
same,CC50,[14]; [30],34.7 µM
same,TGI,[14]; read-out: TGI,61.4 µM
same,GI50,[14]; read-out: pGI50 (converted),2630 nM
same,CC50,[14]; [31],34.7 µM
same,TGI,[14]; read-out: pTGI (converted),6.17 µM
same,growth at 100 µM,[15],-25%
same,growth at 0.1 µM,[16],92%
same,growth at 0.01 µM,[17],104%
same,growth at 1 µM,[18],54%
same,growth at 0.1 µM,[19],101%
same,growth at 0.1 µM,[20],83%
same,GI50,[21]; read-out: GI50,3930 nM
same,CC50,[21]; [30],43 µM
same,TGI,[21]; read-out: TGI,13.4 µM
same,GI50,[21]; read-out: pGI50 (converted),3890 nM
same,CC50,[21]; [31],42.7 µM
same,TGI,[21]; read-out: pTGI (converted),13.5 µM
same,GI50,[22]; read-out: GI50,2560 nM
same,LC50,[22]; read-out: LC50,> 100 µM
same,TGI,[22]; read-out: TGI,66.2 µM
same,GI50,[22]; read-out: pGI50 (converted),2880 nM
same,LC50,[22]; read-out: pLC50 (converted),> 100 µM
same,TGI,[22]; read-out: pTGI (converted),6.61 µM
same,growth at 100 µM,[23],-45%
same,LC50,[24],12.9 µM
same,GI50,[24]; read-out: GI50,1420 nM
same,TGI,[24]; read-out: TGI,36.6 µM
same,GI50,[24]; read-out: pGI50 (converted),1410 nM
same,TGI,[24]; read-out: pTGI (converted),3.89 µM
same,growth at 100 µM,[25],-93%
same,growth at 0.1 µM,[26],95%
same,growth at 0.1 µM,[27],92%
same,growth at 0.1 µM,[28],94%
same,growth at 0.1 µM,[29],103%
